# Results: patent publication US6855693B2, “Peptides for activation and inhibition of δPKC” (The Board of Trustees of the Leland Stanford Junior …, priority 2001, dated 2005)
# No end group written: not given here.
# Tests used:
# Sprague-Dawley rats = assay: Rat cerebral ischemia (stroke) model, middle cerebral artery occlusion, infarct area; format: in vivo; conditions: Tat-conjugated δV1-1 into carotid artery prior to ischemia and at end of 2 hour occlusion, final blood concentration 1 μM; brains 24 hrs later
# Description: In another study performed in support of the invention, the ability of δV1-1 peptide (SEQ ID NO:4) to inhibit damage to the brain as a result of stroke was examined. In this study, described in Example 6, a rat cerebral ischemia model was used. Ischemia was induced using an intraluminal suture to occlude the ostium of the middle cerebral artery. δV1-1 conjugated to Tat peptide (SEQ ID NO:9) or the Tat peptide alone were injected into the carotid artery before and after a two hour occlusion period. The brain from each animal was harvested 24 hours later, stained, and examined.
# Adult male Sprague-Dawley rats weighing between 280-320 g were used. Animals were maintained under isofluorane anesthesia during all surgical procedures. Physiological parameters were monitored and maintained in the normal range. Rectal temperature was also measured. At the completion of the experiment, the animals were euthanized with a barbiturate overdose and prepared for histological analysis.
# Ischemia was induced using an occluding intraluminal suture. […]
# Animals were perfused with heparinized saline and brains removed and sectioned into 2 mm thick slices. […] Areas of infarction (white) were then measured using an image analysis system previously described (Yenari, M. A. et al., 1998; Maier, C. et al., 1998).
# pigs = assay: Left ventricurogram in pigs, ejection fraction; format: in vivo, pig
# Description: In another study, left ventricurogram was performed in pigs (n=5) at three time points: (1) before occlusion of left anterior descending artery by balloon catheter (pre ischemia); (2) immediately after reperfusion with 2.5 μM/10 mL of δV1-1 (post ischemia); and (3) before sacrifice five days later (5 days post ischemia), using 6 Fr. of pig-tail catheter. LVG was recorded by 2 views, right anterior oblique and left anterior oblique. Ejection fraction (EF), the percent of blood ejected in a beat, during maximum contraction, of the total maximum present in the left ventricle, was analyzed by the software, Plus Plus (Sanders Data Systems), and the averages of two views were evaluated. Ejection fraction is a measure of how well the heart is functioning, with a higher ejection fraction indicative of a better functioning heart.
sequence,measurement,setting,value
"SFNSYELGSL (also: conjugated to Antennapedia or Tat carrier; listed as Rattus norvegicus) [δV1-1, tested conjugated to Antennapedia or Tat carrier]",brain infarct area,Sprague-Dawley rats,significant reduction
same,decrease in ejection fraction compared with scrambled peptide control,"pigs; reperfusion with 2.5 μM/10 mL of δV1-1, post ischemia",less pronounced decrease
same,ejection fraction at five days post ischemia,"pigs; reperfusion with 2.5 μM/10 mL of δV1-1, 5 days post ischemia",on par with that measured prior to ischemia and significantly higher than the untreated animals
